In brackets after ≈: the same amount, converted by molar mass.
The compounds below were run on Histoplasma capsulatum (assay: Antifungal activity against Histoplasma capsulatum G217B after 10 to 14 days by microscopic method).
Format: functional, organism-based

| SMILES | IC50 |
| --- | --- |
| C/C=C/C=C/c1c(CC=C(C)C)cc(CC=C(C)C)c(O)c1CO | 8 µg/mL (≈ 24.5 µM) |
| C/C=C/C=C/c1c(CC=C(C)C)cc2c(c1CO)OC(C)(C)C(O)C2=O (stereo unspecified) | 16 µg/mL (≈ 44.9 µM) |
| CC(C)=CCc1cc2c(c3c1[C@@H]1C[C@H](C3=O)[C@@H]1C)OC(C)(C)[C@H](O)C2=O | 64 µg/mL (≈ 181 µM) |
| CC(C)=CCc1cc2c(c3c1[C@@H]1C[C@H](C3=O)[C@@H]1C)OC(C)(C)[C@@H](O)C2=O | 32 µg/mL (≈ 90.3 µM) |
| C[C@@H]1[C@H](O)[C@@H](C)/C=C/C=C/C=C/C=C/C=C/C=C/C=C/[C@H](O[C@@H]2O[C@H](C)[C@@H](O)[C@H](N)[C@@H]2O)C[C@@H]2O[C@](O)(C[C@@H](O)C[C@@H](O)[C@H](O)CC[C@@H](O)C[C@@H](O)CC(=O)O[C@H]1C)C[C@H](O)[C@H]2C(=O)O [AMPHOTERICIN B] | 0.5 µg/mL (≈ 0.541 µM) |
| CCC(C)n1ncn(-c2ccc(N3CCN(c4ccc(OCC5COC(Cn6cncn6)(c6ccc(Cl)cc6Cl)O5)cc4)CC3)cc2)c1=O (stereo unspecified) [ITRACONAZOLE] | 0.001 µg/mL (≈ 0.00142 µM) |

— ChEMBL document CHEMBL4392879, “Secondary Metabolites of Onygenales Fungi Exemplified by Aioliomyces pyridodomos” (J Nat Prod, 2019)
